In patent publication US10711000B2 (Fronthera U.S. Pharmaceuticals LLC, priority 2018, dated 2020) one finds IC50 data, which are given here for 22 compounds.

The experiment has as its target T1, Autotaxin (Homo sapiens, UniProt Q13822).
T1 construct: from tissue; host or cells: pooled human plasma
In words: LPA formation in pooled human plasma (ex vivo autotaxin inhibition). It counts as biochemical. As to conditions: 2 hours incubation. The essentials: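 Pooled human plasma incubated 2 h with various compound concentrations; LPA 18:2 and 20:4 quantified by LC/MS/MS (negative-ion MRM, LPA17:0 internal standard) after butanol extraction. Inhibition of LPA formation relative to untreated plasma; IC50 by non-linear regression.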

Where [1] appears, read: LPA 18:2 by LC/MS/MS, read-out: LPA formation (18:2) (IC50).
The mark [2] stands for this setting: LPA 20:4 by LC/MS/MS, read-out: LPA formation (20:4) (IC50).

SMILES strings stand for the structures. Where two headings read alike, the source gives them in different places.

As to `CCc1nn2c(C)cc(N3CC4(CCN(C(=O)[C@H]5CCCO5)C4)C3)cc2c1N(C)c1nc(-c2ccc(F)cc2)c(C#N)s1` [Example 46, (R)-2-((2-ethyl-7-methyl-5-(6-(tetrahydrofuran-2-carbonyl)-2,6-diazaspiro[3.4]octan-2-yl)pyrazolo[1,5-a]pyridin-3-yl)(methyl)amino)-4-(4-fluorophenyl)thiazole-5-carbonitrile], the concentration for half-maximal inhibition (IC50) under setting [1] was in the range of 100 to 500 nM and the concentration for half-maximal inhibition (IC50) under setting [2] is 100 to 500 nM.
Take `CCc1nn2c(C)cc(N3CC4(CCN(C(=O)C5CN(C)C5)C4)C3)cc2c1N(C)c1nc(-c2ccc(F)cc2)c(C#N)s1` [Example 47, 2-((2-ethyl-7-methyl-5-(6-(1-methylazetidine-3-carbonyl)-2,6-diazaspiro[3.4]octan-2-yl)pyrazolo[1,5-a]pyridin-3-yl)(methyl)amino)-4-(4-fluorophenyl)thiazole-5-carbonitrile]: the IC50 was at most 100 nM under setting [1] and 100 to 500 nM under setting [2].
For `CCc1nn2c(C)cc(N3CCC4(CN(C(=O)[C@H]5CCCO5)C4)C3)cc2c1N(C)c1nc(-c2ccc(F)cc2)c(C#N)s1` [Example 49, (R)-2-((2-ethyl-7-methyl-5-(2-(tetrahydrofuran-2-carbonyl)-2,6-diazaspiro[3.4]octan-6-yl)pyrazolo[1,5-a]pyridin-3-yl)(methyl)amino)-4-(4-fluorophenyl)thiazole-5-carbonitrile], in that order: at most 100 nM and at most 100 nM.
For the compound `CCc1nn2c(C)cc(N3CCC4(CCN(C)C4=O)CC3)cc2c1N(C)c1nc(-c2ccc(F)cc2)c(C#N)s1` [Example 50, 2-((2-ethyl-7-methyl-5-(2-methyl-1-oxo-2,8-diazaspiro[4.5]decan-8-yl)pyrazolo[1,5-a]pyridin-3-yl)(methyl)amino)-4-(4-fluorophenyl)thiazole-5-carbonitrile], the IC50 reads like this: under setting [1], above 1000 nM; under setting [2], above 1000 nM.
In the case of `CCc1nn2c(C)cc(N3CCC4(CN(C(=O)[C@H]5CCOC5)C4)C3)cc2c1N(C)c1nc(-c2ccc(F)cc2)c(C#N)s1` [Example 51, (S)-2-((2-ethyl-7-methyl-5-(2-(tetrahydrofuran-3-carbonyl)-2,6-diazaspiro[3.4]octan-6-yl)pyrazolo[1,5-a]pyridin-3-yl)(methyl)amino)-4-(4-fluorophenyl)thiazole-5-carbonitrile], the IC50 under setting [1] was at most 100 nM and the IC50 under setting [2] is at most 100 nM.
In the case of `CCc1nn2c(C)cc(N3CCC4(CN(C(=O)CO)C4)C3)cc2c1N(C)c1nc(-c2ccc(F)cc2)c(C#N)s1` [Example 52, 2-((2-ethyl-5-(2-(2-hydroxyacetyl)-2,6-diazaspiro[3.4]octan-6-yl)-7-methylpyrazolo[1,5-a]pyridin-3-yl)(methyl)amino)-4-(4-fluorophenyl)thiazole-5-carbonitrile], the 50% inhibitory concentration (IC50) by setting is: under setting [1], 100 to 500 nM; under setting [2], 100 to 500 nM.
Consider `CCc1nn2c(C)cc(N3CC4(CCN(C(=O)C(C)(C)O)C4)C3)cc2c1N(C)c1nc(-c2ccc(F)cc2)c(C#N)s1` [Example 53, 2-((2-ethyl-5-(6-(2-hydroxy-2-methylpropanoyl)-2,6-diazaspiro[3.4]octan-2-yl)-7-methylpyrazolo[1,5-a]pyridin-3-yl)(methyl)amino)-4-(4-fluorophenyl)thiazole-5-carbonitril], for which the IC50 is at most 100 nM under setting [1] and at most 100 nM under setting [2].
For `CCc1nn2c(C)cc(N3CCC4(CN(C(=O)C5(O)CC5)C4)C3)cc2c1N(C)c1nc(-c2ccc(F)cc2)c(C#N)s1` [Example 54, 2-((2-ethyl-5-(2-(1-hydroxycyclopropane-1-carbonyl)-2,6-diazaspiro[3.4]octan-6-yl)-7-methylpyrazolo[1,5-a]pyridin-3-yl)(methyl)amino)-4-(4-fluorophenyl)thiazole-5-carbonitrile], the IC50 by setting is: under setting [1], 500 to 1000 nM; under setting [2], 500 to 1000 nM.
On to `CCc1nn2c(C)cc(N3CCC4(CN(CC(O)CO)C4)C3)cc2c1N(C)c1nc(-c2ccc(F)cc2)c(C#N)s1` (centres unmarked) [Example 55, 2-((5-(2-(2,3-dihydroxypropyl)-2,6-diazaspiro[3.4]octan-6-yl)-2-ethyl-7-methylpyrazolo[1,5-a]pyridin-3-yl)(methyl)amino)-4-(4-fluorophenyl)thiazole-5-carbonitrile], for which the IC50 reads like this: under setting [1], 100 to 500 nM; under setting [2], 100 to 500 nM.
For `CCc1nn2c(C)cc(N3CC4(CN(C(=O)C5(O)CCOCC5)C4)C3)cc2c1N(C)c1nc(-c2ccc(F)cc2)c(C#N)s1` [Example 56], the IC50 was at most 100 nM under setting [1] and at most 100 nM under setting [2].
Consider `CCc1nn2c(C)cc(N3CC4(CN(C(=O)c5cnco5)C4)C3)cc2c1N(C)c1nc(-c2ccc(F)cc2)c(C#N)s1` [Example 57, 2-((2-ethyl-7-methyl-5-(6-(oxazole-5-carbonyl)-2,6-diazaspiro[3.3]heptan-2-yl)pyrazolo[1,5-a]pyridin-3-yl)(methyl)amino)-4-(4-fluorophenyl)thiazole-5-carbonitrile], for which the 50% inhibitory concentration (IC50) is at most 100 nM under setting [1] and at most 100 nM under setting [2].
Turning to `CCc1nn2c(C)cc(N3CC4(CN(C(=O)C(O)CO)C4)C3)cc2c1N(C)c1nc(-c2ccc(F)cc2)c(C#N)s1` (centres unmarked) [Example 60, 2-((5-(6-(2,3-dihydroxypropanoyl)-2,6-diazaspiro[3.3]heptan-2-yl)-2-ethyl-7-methylpyrazolo[1,5-a]pyridin-3-yl)(methyl)amino)-4-(4-fluorophenyl)thiazole-5-carbonitrile], the IC50 reads like this: under setting [1], at most 100 nM; under setting [2], 100 to 500 nM.
As to `CCc1nn2c(C)cc(N3CC4(CN(C(=O)C5(O)CC5)C4)C3)cc2c1N(C)c1nc(-c2ccc(F)cc2)c(C#N)s1` [Example 61, 2-((2-ethyl-5-(6-(1-hydroxycyclopropane-1-carbonyl)-2,6-diazaspiro[3.3]heptan-2-yl)-7-methylpyrazolo[1,5-a]pyridin-3-yl)(methyl)amino)-4-(4-fluorophenyl)thiazole-5-carbonitrile], the IC50 by setting is: under setting [1], 100 to 500 nM; under setting [2], 100 to 500 nM.
`CCc1nn2c(C)cc(N3CC4(CN(C(=O)[C@H](C)O)C4)C3)cc2c1N(C)c1nc(-c2ccc(F)cc2)c(C#N)s1` [Example 62, (S)-2-((2-ethyl-5-(6-(2-hydroxypropanoyl)-2,6-diazaspiro[3.3]heptan-2-yl)-7-methylpyrazolo[1,5-a]pyridin-3-yl)(methyl)amino)-4-(4-fluorophenyl)thiazole-5-carbonitrile]: the IC50 under setting [1] lay within 100 to 500 nM and the IC50 under setting [2] lay in the range of 100 to 500 nM.
For `CCc1nn2c(C)cc(N3CC4(CN(C(=O)[C@@H](C)O)C4)C3)cc2c1N(C)c1nc(-c2ccc(F)cc2)c(C#N)s1` [Example 63, (R)-2-((2-ethyl-5-(6-(2-hydroxypropanoyl)-2,6-diazaspiro[3.3]heptan-2-yl)-7-methylpyrazolo[1,5-a]pyridin-3-yl)(methyl)amino)-4-(4-fluorophenyl)thiazole-5-carbonitrile], the half-inhibitory concentration (IC50) lay in the range of 100 to 500 nM under setting [1] and 100 to 500 nM under setting [2].
Consider `CCc1nn2c(C)cc(N3CC4C(C3)C4NC(=O)[C@H]3CCOC3)cc2c1N(C)c1nc(-c2ccc(F)cc2)c(C#N)s1` (stereo partly drawn) [Example 64, (3S)—N-(3-(3-((5-cyano-4-(4-fluorophenyl)thiazol-2-yl)(methyl)amino)-2-ethyl-7-methylpyrazolo[1,5-a]pyridin-5-yl)-3-azabicyclo[3.1.0]hexan-6-yl)tetrahydrofuran-3-carboxamide], for which the IC50 fell in the range of 100 to 500 nM under setting [1] and 100 to 500 nM under setting [2].
In the case of `CCc1nn2c(C)cc(N3CC4(CN(C(=O)c5ccco5)C4)C3)cc2c1N(C)c1nc(-c2ccc(F)cc2)c(C#N)s1` [Example 66, 2-((2-ethyl-5-(6-(furan-2-carbonyl)-2,6-diazaspiro[3.3]heptan-2-yl)-7-methylpyrazolo[1,5-a]pyridin-3-yl)(methyl)amino)-4-(4-fluorophenyl)thiazole-5-carbonitrile], the IC50 is at most 100 nM under setting [1] and at most 100 nM under setting [2].
On to `CCc1nn2c(C)cc(N3CCC4(CN(C[C@H](O)CO)C4)C3)cc2c1N(C)c1nc(-c2ccc(F)cc2)c(C#N)s1` [Example 68, (S)-2-((5-(2-(2,3-dihydroxypropyl)-2,6-diazaspiro[3.4]octan-6-yl)-2-ethyl-7-methylpyrazolo[1,5-a]pyridin-3-yl)(methyl)amino)-4-(4-fluorophenyl)thiazole-5-carbonitrile], for which the IC50 is, setting by setting: under setting [1], 100 to 500 nM; under setting [2], 100 to 500 nM.
With `CCc1nn2c(C)cc(N3CCC4(CN(C[C@@H](O)CO)C4)C3)cc2c1N(C)c1nc(-c2ccc(F)cc2)c(C#N)s1` [Example 69, (R)-2-((5-(2-(2,3-dihydroxypropyl)-2,6-diazaspiro[3.4]octan-6-yl)-2-ethyl-7-methylpyrazolo[1,5-a]pyridin-3-yl)(methyl)amino)-4-(4-fluorophenyl)thiazole-5-carbonitrile], the IC50 was in the range of 100 to 500 nM under setting [1] and 100 to 500 nM under setting [2].
Regarding `CCc1nn2c(C)cc(N3CC4(CN(C(=O)c5ccon5)C4)C3)cc2c1N(C)c1nc(-c2ccc(F)cc2)c(C#N)s1` [Example 70, 2-((2-ethyl-5-(6-(isoxazole-3-carbonyl)-2,6-diazaspiro[3.3]heptan-2-yl)-7-methylpyrazolo[1,5-a]pyridin-3-yl)(methyl)amino)-4-(4-fluorophenyl)thiazole-5-carbonitrile], the IC50 runs as follows: under setting [1], 100 to 500 nM; under setting [2], 100 to 500 nM.
For the compound `CCc1nn2c(C)cc(N3CC4(C3)CN(S(C)(=O)=O)C4)cc2c1N(C)c1nc(-c2ccc(F)cc2)c(C#N)s1` [Example 71], the IC50 runs as follows: under setting [1], 100 to 500 nM; under setting [2], 100 to 500 nM.
Take `CCc1nn2c(C)cc(-c3cnn(C[C@@H](O)CO)c3)cc2c1N(C)c1nc(-c2ccc(F)cc2)c(C#N)s1` [Example 72, (R)-2-((5-(1-(2,3-dihydroxypropyl)-1H-pyrazol-4-yl)-2-ethyl-7-methylpyrazolo[1,5-a]pyridin-3-yl)(methyl)amino)-4-(4-fluorophenyl)thiazole-5-carbonitrile]: the IC50 is, setting by setting: under setting [1], above 1000 nM; under setting [2], above 1000 nM.
